This is an account of results in ChEMBL document CHEMBL5678818, “Discovery of potent SOS1 inhibitors that block RAS activation via disruption of the RAS-SOS1 interaction” (Proc Natl Acad Sci U S A, 2019).

The structures appear in SMILES notation. The source made the active and inactive calls. No cut-off for these calls is given here.

Assay [1] addresses Protein kinase C delta type (Homo sapiens) (UniProt Q05655). Briefly: Inhibition of PRKCD (unknown origin) assessed as residual activity at 100 nM by KINOMEscan analysis relative to control.
In assay [2] the target is T1, Son of sevenless homolog 1 (Homo sapiens) (UniProt Q07889).
T1 sequence (whole entry): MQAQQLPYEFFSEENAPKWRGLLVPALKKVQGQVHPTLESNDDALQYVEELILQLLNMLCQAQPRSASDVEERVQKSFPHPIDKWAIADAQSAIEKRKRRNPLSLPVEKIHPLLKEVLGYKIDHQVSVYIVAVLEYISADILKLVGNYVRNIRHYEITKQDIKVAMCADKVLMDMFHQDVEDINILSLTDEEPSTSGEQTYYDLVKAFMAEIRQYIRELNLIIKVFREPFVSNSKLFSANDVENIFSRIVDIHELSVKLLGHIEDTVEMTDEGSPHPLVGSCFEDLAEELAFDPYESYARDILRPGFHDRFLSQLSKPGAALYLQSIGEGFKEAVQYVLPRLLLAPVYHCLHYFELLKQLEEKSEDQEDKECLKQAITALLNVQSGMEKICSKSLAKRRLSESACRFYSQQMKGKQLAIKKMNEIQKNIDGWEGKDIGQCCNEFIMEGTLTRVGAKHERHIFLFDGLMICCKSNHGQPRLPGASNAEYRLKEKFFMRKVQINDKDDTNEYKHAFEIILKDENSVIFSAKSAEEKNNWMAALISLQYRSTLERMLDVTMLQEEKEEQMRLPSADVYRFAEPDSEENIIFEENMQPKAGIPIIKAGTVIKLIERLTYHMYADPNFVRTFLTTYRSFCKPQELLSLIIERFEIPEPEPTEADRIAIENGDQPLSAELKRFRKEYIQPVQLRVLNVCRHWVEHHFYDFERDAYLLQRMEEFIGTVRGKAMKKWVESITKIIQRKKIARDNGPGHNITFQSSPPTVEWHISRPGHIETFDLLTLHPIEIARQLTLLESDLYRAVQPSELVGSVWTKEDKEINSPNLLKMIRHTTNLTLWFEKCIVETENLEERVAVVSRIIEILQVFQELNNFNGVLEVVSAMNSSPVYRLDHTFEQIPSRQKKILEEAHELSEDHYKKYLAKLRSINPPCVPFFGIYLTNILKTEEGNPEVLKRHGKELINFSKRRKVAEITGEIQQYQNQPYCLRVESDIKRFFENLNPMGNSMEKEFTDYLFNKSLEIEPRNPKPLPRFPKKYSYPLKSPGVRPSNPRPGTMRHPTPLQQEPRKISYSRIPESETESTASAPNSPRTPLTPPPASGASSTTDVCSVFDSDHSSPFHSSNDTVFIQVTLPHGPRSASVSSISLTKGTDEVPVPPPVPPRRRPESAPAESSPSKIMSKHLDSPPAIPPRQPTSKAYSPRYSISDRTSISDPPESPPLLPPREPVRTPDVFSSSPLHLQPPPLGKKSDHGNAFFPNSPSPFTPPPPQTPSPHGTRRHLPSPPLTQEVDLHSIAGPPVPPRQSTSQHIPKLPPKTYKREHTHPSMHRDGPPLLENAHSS
Briefly: Binding affinity to N-terminal His10-tagged wild-type recombinant human SOS1 catalytic domain (564 to 1049 residues) expressed in Escherichia coli assessed as binding at 1:1 stoichiometry at 100 uM incubated for 1 hr by native MS analysis.

Assay [3] has as its system Phosphatidylinositol 4,5-bisphosphate 3-kinase catalytic subunit alpha isoform (Homo sapiens), P42336 [H1047Y]. As to the kind of experiment: Inhibition of PIK3CA H1047Y mutant (unknown origin) assessed as residual activity at 100 nM by KINOMEscan analysis relative to control.
The next assay is filed under the species Homo sapiens. As to the kind of experiment: Inhibition of PIP5K1C (unknown origin) assessed as residual activity at 100 nM by KINOMEscan analysis relative to control.
Assay [4] addresses Phosphatidylinositol 4,5-bisphosphate 3-kinase catalytic subunit gamma isoform (Homo sapiens) (UniProt P48736). Briefly: Inhibition of PIK3CG (unknown origin) assessed as residual activity at 100 nM by KINOMEscan analysis relative to control.
Assay [5] has as its system Serine/threonine-protein kinase B-raf (Homo sapiens), P15056 [V600E]. Briefly: Inhibition of BRAF V600E mutant (unknown origin) assessed as residual activity at 100 nM by KINOMEscan analysis relative to control.
Assay [6] deals with T2, Serine/threonine-protein kinase PLK4 (Homo sapiens) (UniProt O00444).
T2 sequence (whole entry): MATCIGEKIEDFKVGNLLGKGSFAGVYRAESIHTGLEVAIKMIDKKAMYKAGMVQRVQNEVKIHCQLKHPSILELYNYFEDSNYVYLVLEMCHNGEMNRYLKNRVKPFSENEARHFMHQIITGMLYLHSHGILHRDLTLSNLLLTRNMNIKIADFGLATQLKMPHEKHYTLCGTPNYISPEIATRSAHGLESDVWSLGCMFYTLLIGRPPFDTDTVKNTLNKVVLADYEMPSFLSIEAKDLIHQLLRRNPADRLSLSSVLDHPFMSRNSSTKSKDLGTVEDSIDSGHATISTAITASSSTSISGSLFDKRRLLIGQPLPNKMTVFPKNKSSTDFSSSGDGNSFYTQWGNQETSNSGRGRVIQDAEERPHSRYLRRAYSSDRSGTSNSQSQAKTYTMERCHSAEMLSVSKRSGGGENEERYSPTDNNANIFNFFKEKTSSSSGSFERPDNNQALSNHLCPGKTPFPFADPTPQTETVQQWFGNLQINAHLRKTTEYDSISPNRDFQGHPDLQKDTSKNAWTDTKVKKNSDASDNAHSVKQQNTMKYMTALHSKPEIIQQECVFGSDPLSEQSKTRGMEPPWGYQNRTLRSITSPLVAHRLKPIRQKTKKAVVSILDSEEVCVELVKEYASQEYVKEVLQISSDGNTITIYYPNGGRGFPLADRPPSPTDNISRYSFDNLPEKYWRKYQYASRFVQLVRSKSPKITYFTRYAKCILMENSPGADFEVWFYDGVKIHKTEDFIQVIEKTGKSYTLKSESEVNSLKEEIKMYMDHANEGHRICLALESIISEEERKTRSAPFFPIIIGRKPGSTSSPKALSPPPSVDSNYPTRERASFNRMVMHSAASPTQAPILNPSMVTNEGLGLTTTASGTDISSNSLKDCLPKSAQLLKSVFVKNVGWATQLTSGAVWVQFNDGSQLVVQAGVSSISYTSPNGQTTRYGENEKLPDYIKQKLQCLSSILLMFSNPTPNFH
As to the kind of experiment: Inhibition of PLK4 (unknown origin) assessed as residual activity at 100 nM by KINOMEscan analysis relative to control.

Chain of Serine/threonine-protein kinase B-raf (Homo sapiens), P15056 [V600E] (P15056 whole entry V600E): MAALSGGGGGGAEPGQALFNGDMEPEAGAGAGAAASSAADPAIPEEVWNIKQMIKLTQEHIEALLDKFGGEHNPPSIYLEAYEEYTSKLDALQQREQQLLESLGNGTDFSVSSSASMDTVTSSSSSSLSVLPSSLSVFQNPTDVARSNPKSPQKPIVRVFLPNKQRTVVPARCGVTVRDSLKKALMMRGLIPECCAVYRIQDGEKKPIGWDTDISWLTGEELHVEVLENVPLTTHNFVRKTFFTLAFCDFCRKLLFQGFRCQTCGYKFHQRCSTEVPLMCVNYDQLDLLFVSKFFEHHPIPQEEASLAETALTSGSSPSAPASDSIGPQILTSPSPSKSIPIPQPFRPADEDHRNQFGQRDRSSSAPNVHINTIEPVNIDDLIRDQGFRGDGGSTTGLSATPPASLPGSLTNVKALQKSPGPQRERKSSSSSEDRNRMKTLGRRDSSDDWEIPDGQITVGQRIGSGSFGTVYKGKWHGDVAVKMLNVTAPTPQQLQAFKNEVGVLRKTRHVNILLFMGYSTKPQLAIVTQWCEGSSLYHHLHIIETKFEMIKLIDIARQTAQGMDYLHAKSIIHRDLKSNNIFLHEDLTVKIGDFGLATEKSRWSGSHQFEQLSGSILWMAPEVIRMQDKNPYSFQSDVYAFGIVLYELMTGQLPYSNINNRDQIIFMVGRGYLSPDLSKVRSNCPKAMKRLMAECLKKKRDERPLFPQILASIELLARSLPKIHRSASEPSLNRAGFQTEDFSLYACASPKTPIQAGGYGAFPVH
Chain of Phosphatidylinositol 4,5-bisphosphate 3-kinase catalytic subunit alpha isoform (Homo sapiens), P42336 [H1047Y] (P42336 whole entry H1047Y, canonical isoform): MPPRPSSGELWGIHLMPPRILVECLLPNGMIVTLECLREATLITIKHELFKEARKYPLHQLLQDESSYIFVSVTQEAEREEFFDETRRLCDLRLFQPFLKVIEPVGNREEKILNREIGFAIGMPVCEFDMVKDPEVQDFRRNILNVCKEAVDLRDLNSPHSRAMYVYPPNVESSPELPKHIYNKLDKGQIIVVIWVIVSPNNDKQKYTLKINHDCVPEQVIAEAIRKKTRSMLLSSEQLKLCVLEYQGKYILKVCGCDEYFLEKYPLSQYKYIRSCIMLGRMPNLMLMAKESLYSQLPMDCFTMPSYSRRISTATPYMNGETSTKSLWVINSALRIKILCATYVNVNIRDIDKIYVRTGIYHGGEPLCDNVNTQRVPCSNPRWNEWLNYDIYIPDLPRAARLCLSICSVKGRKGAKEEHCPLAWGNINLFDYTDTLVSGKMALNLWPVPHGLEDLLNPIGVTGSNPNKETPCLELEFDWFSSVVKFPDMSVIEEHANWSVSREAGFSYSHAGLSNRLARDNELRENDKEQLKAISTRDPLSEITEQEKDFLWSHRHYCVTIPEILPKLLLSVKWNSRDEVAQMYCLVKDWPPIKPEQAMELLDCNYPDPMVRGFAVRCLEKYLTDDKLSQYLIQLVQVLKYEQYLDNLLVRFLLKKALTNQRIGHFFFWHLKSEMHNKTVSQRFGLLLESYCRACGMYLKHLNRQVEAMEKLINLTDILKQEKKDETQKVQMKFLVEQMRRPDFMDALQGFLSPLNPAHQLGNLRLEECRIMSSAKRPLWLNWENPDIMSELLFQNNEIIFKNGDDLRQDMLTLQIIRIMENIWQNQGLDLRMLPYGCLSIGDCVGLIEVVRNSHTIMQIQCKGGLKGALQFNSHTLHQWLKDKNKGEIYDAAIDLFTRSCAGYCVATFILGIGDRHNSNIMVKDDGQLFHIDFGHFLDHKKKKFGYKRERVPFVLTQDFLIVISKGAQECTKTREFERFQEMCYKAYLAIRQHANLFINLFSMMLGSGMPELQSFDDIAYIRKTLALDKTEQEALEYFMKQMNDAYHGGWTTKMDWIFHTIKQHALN
Chain of Protein kinase C delta type (Homo sapiens) (Q05655 whole entry, looked up): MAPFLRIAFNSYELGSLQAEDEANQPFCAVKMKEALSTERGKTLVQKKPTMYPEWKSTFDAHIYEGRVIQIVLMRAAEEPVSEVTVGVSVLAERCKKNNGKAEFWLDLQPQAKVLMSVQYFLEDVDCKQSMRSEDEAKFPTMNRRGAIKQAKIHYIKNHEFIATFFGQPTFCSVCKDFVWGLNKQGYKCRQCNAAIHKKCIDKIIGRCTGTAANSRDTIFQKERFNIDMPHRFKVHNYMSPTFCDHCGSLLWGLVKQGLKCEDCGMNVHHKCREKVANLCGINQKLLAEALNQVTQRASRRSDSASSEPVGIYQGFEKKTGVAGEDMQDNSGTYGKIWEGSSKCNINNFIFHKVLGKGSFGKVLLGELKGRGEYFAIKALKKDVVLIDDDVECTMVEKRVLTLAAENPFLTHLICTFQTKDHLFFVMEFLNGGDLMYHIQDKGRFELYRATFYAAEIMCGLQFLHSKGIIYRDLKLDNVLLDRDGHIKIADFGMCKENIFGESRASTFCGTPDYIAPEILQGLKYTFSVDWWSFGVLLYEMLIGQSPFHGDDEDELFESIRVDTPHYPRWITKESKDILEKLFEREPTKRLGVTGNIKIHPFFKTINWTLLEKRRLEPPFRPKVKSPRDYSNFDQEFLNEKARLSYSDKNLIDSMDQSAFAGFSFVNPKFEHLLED
Chain of Phosphatidylinositol 4,5-bisphosphate 3-kinase catalytic subunit gamma isoform (Homo sapiens) (P48736 whole entry, looked up, canonical isoform): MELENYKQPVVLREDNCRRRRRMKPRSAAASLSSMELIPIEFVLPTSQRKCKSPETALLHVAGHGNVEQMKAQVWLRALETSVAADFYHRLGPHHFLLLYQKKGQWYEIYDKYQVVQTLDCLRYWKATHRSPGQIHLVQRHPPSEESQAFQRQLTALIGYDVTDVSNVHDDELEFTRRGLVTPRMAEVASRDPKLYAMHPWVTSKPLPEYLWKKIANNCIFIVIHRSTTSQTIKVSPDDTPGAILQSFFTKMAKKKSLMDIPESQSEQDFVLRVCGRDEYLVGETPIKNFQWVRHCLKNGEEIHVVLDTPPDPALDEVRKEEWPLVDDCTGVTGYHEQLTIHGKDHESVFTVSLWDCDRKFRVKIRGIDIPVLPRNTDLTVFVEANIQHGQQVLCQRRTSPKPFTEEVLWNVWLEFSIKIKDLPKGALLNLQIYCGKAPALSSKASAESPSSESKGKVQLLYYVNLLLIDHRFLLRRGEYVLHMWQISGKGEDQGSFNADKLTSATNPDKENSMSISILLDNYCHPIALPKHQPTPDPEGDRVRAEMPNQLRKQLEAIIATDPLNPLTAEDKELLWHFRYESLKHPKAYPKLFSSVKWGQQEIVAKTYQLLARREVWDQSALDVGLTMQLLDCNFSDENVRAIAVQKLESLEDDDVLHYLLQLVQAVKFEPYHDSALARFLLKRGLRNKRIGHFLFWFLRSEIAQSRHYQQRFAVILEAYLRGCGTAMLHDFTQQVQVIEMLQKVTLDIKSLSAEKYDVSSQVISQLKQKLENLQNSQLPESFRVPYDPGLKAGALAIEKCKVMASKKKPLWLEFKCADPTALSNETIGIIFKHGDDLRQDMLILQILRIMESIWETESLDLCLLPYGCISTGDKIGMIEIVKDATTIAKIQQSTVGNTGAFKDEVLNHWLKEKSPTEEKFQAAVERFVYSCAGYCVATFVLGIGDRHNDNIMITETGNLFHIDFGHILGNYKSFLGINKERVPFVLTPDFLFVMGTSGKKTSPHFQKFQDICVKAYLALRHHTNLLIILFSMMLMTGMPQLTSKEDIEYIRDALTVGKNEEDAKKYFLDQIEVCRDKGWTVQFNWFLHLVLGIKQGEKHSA

As for `COc1cc2ncnc(N[C@H](C)c3cccc4ccccc34)c2cc1OC`, the Activity in assay [1] stood at 100%; in assay [3] it was 73%; in the assay filed under Homo sapiens it was 63%; in assay [4], 78%; in assay [5], 92%; in assay [6] it was 87%. Further, the result in assay [2] was Active.
